This note sets out measurements from PubChem BioAssay (NCI).

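Tested at 5 concentrations; 48 h exposure; 96-well plates; endpoints linearly interpolated, else capped at highest concentration. Abbreviation: GI50, concentration required for 50% inhibition of growth. TGI: concentration producing complete growth inhibition.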 Bounds are passed on as bounds.

One may read the TGI as the concentration giving total growth inhibition. Higher therefore signals lower sensitivity of the cells. By GI50 is commonly meant the concentration giving 50% growth inhibition.

Among the test systems are 786-0 renal; A549 NSCLC; HL-60(TB) leukemia; IGROV1 ovarian; OVCAR-5 ovarian; PC-3 prostate; SF-295 CNS; SK-OV-3 ovarian; SR leukemia; CAKI-1 renal.
What all share (assay): DTP human tumour cell line panel, 48 h

Regarding `OCCOCn1nc(-c2ccccc2)nc1-c1cnccn1`, the TGI with 786-0 renal, in the test with A549 NSCLC, in the test on HL-60(TB) leukemia, in the test with IGROV1 ovarian, in the test with OVCAR-5 ovarian and in the test on PC-3 prostate was more than 100 µM each time. For the same molecule, the TGI in the test with SF-295 CNS, with SK-OV-3 ovarian and in the test with SR leukemia was more than 100 µM each time.
Consider `COC(=O)C(=O)C(C(=O)C(=O)Nc1ccc(Cl)cc1Cl)c1nc2ccc(Cl)cc2[nH]c1=O` (stereo not given), for which the TGI in the test with 786-0 renal, with A549 NSCLC, with CAKI-1 renal, in the test on HL-60(TB) leukemia, with IGROV1 ovarian and in the test with OVCAR-5 ovarian was more than 100 µM throughout. The TGI with PC-3 prostate, in the test with SF-295 CNS and in the test on SK-OV-3 ovarian was more than 100 µM throughout.
Consider `COc1cc(C2CC(c3ccc(C)cc3)=NN2C(C)=O)ccc1Oc1ccnc2cc(Cl)ccc12` (stereo not given), for which the GI50 is 1.17 µM in the test with 786-0 renal; more than 100 µM with HL-60(TB) leukemia; 38.2 µM in the test with IGROV1 ovarian; more than 100 µM with OVCAR-5 ovarian; more than 100 µM in the test on PC-3 prostate; 2.52 µM with SF-295 CNS. Also, the GI50 was 32.4 µM in the test on SK-OV-3 ovarian and more than 100 µM in the test with SR leukemia. In addition, the TGI in the test with 786-0 renal was 10.4 µM; in the test with HL-60(TB) leukemia, more than 100 µM; with IGROV1 ovarian, more than 100 µM; with OVCAR-5 ovarian, more than 100 µM; in the test on PC-3 prostate it was more than 100 µM; in the test on SF-295 CNS, more than 100 µM. The TGI with SK-OV-3 ovarian and with SR leukemia was more than 100 µM each time.
With `Cc1cc(C)c2nc(Nc3nc(C)c(C)c(=O)[nH]3)nc(C)c2c1`, the GI50 in the test with 786-0 renal is 2.4 µM; in the test with A549 NSCLC it was 2.27 µM; in the test on HL-60(TB) leukemia it was 2.53 µM; with IGROV1 ovarian, 2.85 µM; in the test with OVCAR-5 ovarian it was 3.01 µM; in the test with PC-3 prostate, 2.96 µM. For the same molecule, the GI50 in the test with SF-295 CNS was 2.29 µM; with SK-OV-3 ovarian it was 2.5 µM; in the test with SR leukemia, 2.18 µM. Further, the TGI in the test with 786-0 renal stood at 12.3 µM; in the test on A549 NSCLC, 5.92 µM; with HL-60(TB) leukemia, 6.98 µM; in the test with IGROV1 ovarian, 12.8 µM; with OVCAR-5 ovarian, 18.5 µM; in the test with PC-3 prostate, 15.1 µM. The TGI with SF-295 CNS was 6.44 µM; in the test with SK-OV-3 ovarian, 10.3 µM; in the test on SR leukemia, 7.43 µM.
As for `COc1ccc(OC)c(-c2cc(-c3ccc(Cl)cc3)nn2-c2ccc(S(N)(=O)=O)cc2)c1`, the GI50 in the test on 786-0 renal was 13.2 µM; with A549 NSCLC it was 7.84 µM; in the test on CAKI-1 renal, 11.2 µM; in the test on HL-60(TB) leukemia it was 14.3 µM; in the test on IGROV1 ovarian, 21.6 µM; with OVCAR-5 ovarian, 12.8 µM. Moreover, the results for the GI50 with PC-3 prostate and in the test with SF-295 CNS were 3.62 µM and 17.2 µM, respectively. Besides, the TGI with 786-0 renal is 27.1 µM; in the test on A549 NSCLC, 51.9 µM; with CAKI-1 renal, 29.3 µM; in the test on HL-60(TB) leukemia, more than 100 µM; with IGROV1 ovarian, more than 100 µM; in the test on OVCAR-5 ovarian, 28.7 µM. Also, the TGI turned out to be 15.7 µM with PC-3 prostate and 44.4 µM in the test on SF-295 CNS.
Regarding `COc1ccc(-n2cc(-c3ccc(Cl)cc3)[nH]c2=S)cc1Cl`, the GI50 with 786-0 renal is 20 µM; with A549 NSCLC it was 46.6 µM; in the test with CAKI-1 renal, 24.3 µM; in the test with HL-60(TB) leukemia, more than 100 µM; with IGROV1 ovarian, 30.2 µM; in the test with OVCAR-5 ovarian it was more than 100 µM. Moreover, the GI50 was 30.7 µM with PC-3 prostate, 22 µM with SF-295 CNS and 23.6 µM in the test with SK-OV-3 ovarian. Besides, the TGI was 41.4 µM in the test on 786-0 renal; more than 100 µM with A549 NSCLC; 56.7 µM with CAKI-1 renal; more than 100 µM in the test with HL-60(TB) leukemia; more than 100 µM with IGROV1 ovarian; more than 100 µM with OVCAR-5 ovarian. Also, the TGI in the test on PC-3 prostate was more than 100 µM; in the test with SF-295 CNS, 57.7 µM; with SK-OV-3 ovarian, 52.6 µM.
Turning to `CCCCC#Cc1c(I)n(C2OC(CO[Si](C)(C)C(C)(C)C)C3OC(C)(C)OC32)c(=O)[nH]c1=O` (stereo not given), the GI50 was 15.4 µM in the test with 786-0 renal; 16.6 µM in the test on A549 NSCLC; 12.5 µM in the test on CAKI-1 renal; 1.52 µM in the test on HL-60(TB) leukemia; 3.32 µM with IGROV1 ovarian; 14.4 µM with OVCAR-5 ovarian. Moreover, the GI50 in the test with PC-3 prostate is 2.8 µM; in the test with SF-295 CNS it was 22 µM. The concentration for total growth inhibition (TGI) with 786-0 renal turned out to be 29 µM; with A549 NSCLC it was 34.2 µM; in the test on CAKI-1 renal, 25.3 µM; with HL-60(TB) leukemia, 4.14 µM; in the test on IGROV1 ovarian it was 15.4 µM; in the test on OVCAR-5 ovarian, 27.9 µM. Moreover, the TGI in the test on PC-3 prostate was 10.4 µM; with SF-295 CNS it was 51.5 µM.
Turning to `COC1=CC(=O)c2c(O)c3c(c(O)c2C1=O)CC(C)(O)OC3` (stereo not given), the TGI with 786-0 renal is 27.3 µM; in the test with A549 NSCLC, 8.8 µM; in the test on CAKI-1 renal, 16.5 µM; with HL-60(TB) leukemia it was 24.2 µM; in the test on IGROV1 ovarian, 7.94 µM; in the test with OVCAR-5 ovarian it was 14.6 µM. For the same molecule, the TGI with PC-3 prostate amounted to 14.9 µM; in the test with SF-295 CNS, 13.9 µM; in the test with SK-OV-3 ovarian, 58.9 µM.
For `Nc1nc(Cl)cc2c1ncn2C1OC(CO)C(O)C1O` (stereo not given), the GI50 with 786-0 renal, in the test with A549 NSCLC, in the test on HL-60(TB) leukemia, in the test with IGROV1 ovarian, in the test with OVCAR-5 ovarian and with PC-3 prostate was more than 100 µM each time. Besides, the GI50 in the test on SK-OV-3 ovarian and with SR leukemia was more than 100 µM throughout. In addition, the TGI in the test with 786-0 renal, in the test with A549 NSCLC, in the test with HL-60(TB) leukemia, in the test with IGROV1 ovarian, in the test with OVCAR-5 ovarian and with PC-3 prostate was more than 100 µM each time. In addition, the TGI in the test on SK-OV-3 ovarian and in the test on SR leukemia was more than 100 µM throughout.
`Cc1ccc(NC(=O)C(=O)C2C(=O)C3=C(CC2(C)C)NC2C=CC=CC2S3)c(C)c1` (stereo not given): the TGI in the test with 786-0 renal, with A549 NSCLC, in the test with CAKI-1 renal, in the test with HL-60(TB) leukemia, in the test with IGROV1 ovarian and with PC-3 prostate was more than 100 µM each time. The TGI in the test with SF-295 CNS and with SK-OV-3 ovarian was more than 100 µM in each case.
